Patent US8980874B2, “Method and composition for treating diabetic ketoacidosis” (Midwestern University, priority 2009, dated 2015)
“Also recorded” adds a separate entry of the source. Non-standard residues stand in square brackets, D forms with d. Residues, ends and D or L forms follow the SMILES beside them.

How the values were obtained:
Format in all cases: in vivo
rat model of DKA [1] = test: Cardiovascular parameters (MAP, pulse pressure, heart rate) in diabetic ketoacidosis rats; conditions: result in words; for effect on mean arterial pressure: day 4, FIG. 3, antagonist given with saline+insulin; for effect on heart rate: day 4, FIG. 5, antagonist given with saline+insulin
Description: Rats were anaesthetized with urethane (1.5 g/kg ip.) and prepared for the determination of hemodynamic parameters (Gulati et al., 1997a; Gulati et al., 1997b). The anesthetized rats were shaved and immobilized to prepare for cannulation. A 2-3 centimeter (cm) incision was made above the femoral vein and artery and the vessels were dissected and cleaned. The left femoral vein was cannulated (PE-50 tubing, Clay Adams, Parsipanny, N.J.) and secured for drug administration. An ultra-miniature pressure transducer SPR-320 (2F Polyurethane), with a single pressure sensor side mounted at the tip (Millar Instruments, Houston, Tex.) was inserted in the left femoral artery to acquire the hemodynamic signals. Pressure transducer was connected to bridge amplifier (ML221 Bridge Amp; AD Instruments, Mountain View, Calif., USA) with Viking connector (AEC-10C) and the signals were continuously acquired at a sampling rate of 1000 S^−1 using Millar PowerLab 16/30 data acquisition system (AD Instruments, Mountain View, Calif., USA). Mean arterial pressure (MAP), heart rate (HR), and pulse pressure (PP) were determined and analyzed with LabChart-5.00 software program (Millar Instruments). After the experiment was completed, the animals were euthanized with a high dose of urethane (3 gm/kg).
(§1) Group 4: Diabetic saline/insulin treated (D-Saline+insulin treated): Rats were injected with streptozotocin in citrate buffer (150 mg/kg ip) to induce diabetes and ketoacidosis. On day three, rats were treated with 1.5 U/kg regular insulin (Humulin® R (Regular human insulin, rDNA origin). On day four, saline and insulin treatment was carried out. Rats were infused via cannulated femoral vein saline, 0.9% NaCl at 80 mL/kg/hr and 1.5 U/kg/hr regular insulin for one hour. During the next two through four hours, rats were infused with saline, 0.9% NaCl at 40 mL/kg/hr and 1.5 U/kg/hr regular insulin (Yuen et al., 2008).
(§2) Group 5: Diabetic BMS-182874/saline/insulin treated (D-BMS+Saline+insulin treated): Rats were injected with streptozotocin in citrate buffer (150 mg/kg ip) to induce diabetes and ketoacidosis. On day three, rats were treated with 1.5 U/kg regular insulin. On day four, rats were administered a bolus dose of selective ETA receptor antagonist, BMS-182874 (9 mg/kg), then saline and insulin treatment was carried out. Rats were infused via cannulated femoral vein saline, 0.9% NaCl at 80 mL/kg/hr and 1.5 U/kg/hr regular insulin for one hour. During the next two through four hours rats were infused with saline, 0.9% NaCl at 40 mL/kg/hr and 1.5 U/kg/hr regular insulin.
(§3) Group 6: Diabetic BQ123/saline/insulin treated (D-BQ+saline+insulin treated): Same as above for Group 5, except BQ123 (1 mg/kg body weight) is used as a substitute for BMS-182874 (9 mg/kg).
(§4) Data are presented as mean±SEM. The significance of differences was estimated by one-way analysis of variance (intra group comparison with respect to base line data) and two-way analysis of variance (inter group comparison with respect to corresponding time points from each groups) followed by application of the Dunnett's Multiple Comparisons and Bonferroni test respectively. A P value of less than 0.05 was considered to be significant. The statistical analysis was processed with GraphPad Prism software Version 5.00.

rat model of DKA [2] = test: Blood glucose in streptozotocin-induced diabetic ketoacidosis rats; conditions: for blood glucose, Day 4 (pre-tx): baseline before treatment on day 4, mean±SEM; for effect of treatment on blood glucose: day 4, result in words; for blood glucose, Day 4 (end of tx) / blood glucose, Day 4 (1 hour of tx): saline+insulin infusion, alone or after bolus BMS-182874 9 mg/kg or BQ123 1 mg/kg, mean±SEM; for blood glucose, Day 4 (end of tx): fifth hour
Procedure: Normotensive Sprague Dawley rats were kept on fasting for 2 hours with unlimited access to water. After 2 hours of fasting, rats were injected intraperitoneally with 150 mg/kg of streptozotocin in 0.05 mol/L citric acid, pH 4.3 to induced diabetes (Lam et al., 2005; Yuen et al., 2008), while non-diabetic control rats received an intraperitoneal injection of 0.05 mol/L citrate buffer (Lam et al., 2005; Yuen et al., 2008). Rats were allowed unlimited access to tap water and food. Each day rats were weighed and urine ketone levels were estimated by Urine Reagent Strips, 1K Parameter. Prior to streptozotocin or citrate buffer injection, baseline blood glucose levels were assessed by One Touch Ultra blood glucose strips from Lifescan, Milpitas, Calif., and baseline blood ketone levels were estimated using Cardiochek blood ketone analyzer. Blood glucose and ketone were measured again on day three and four to ensure the onset of hyperglycemia and ketoacidosis. […] Blood samples were withdrawn from the femoral […] for baseline reading prior to start of treatment, after the first hour of treatment, and then at the end of the treatment (fifth hour of experiment).
The animals were allowed to stabilize for at least 20 minutes following surgical procedures. Body weight, blood glucose, urinary ketone, blood ketone, arterial blood gases, blood electrolytes, mean arterial pressure, pulse pressure, heart rate, brain blood perfusion, brain and lung water content were determined in the following groups
as §1, §2, §3, §4

rat model of DKA [3] = test: Arterial blood gases, electrolytes, lactate and hematocrit in diabetic ketoacidosis rats; conditions: for arterial blood pH, Day 4 (pre-tx) / arterial blood pCO2, Day 4 (pre-tx) / arterial blood pO2, Day 4 (pre-tx) / blood K+ level, Day 4 (pre-tx) / blood Na+ level, Day 4 (pre-tx) / blood hematocrit (Hct), Day 4 (pre-tx): baseline; for arterial blood pH, Day 4 (pre-tx): instrument could not record pH below 6.80, mean±SEM; for arterial blood pCO2, Day 4 (pre-tx) / arterial blood pO2, Day 4 (pre-tx) / blood K+ level, Day 4 (pre-tx) / blood Na+ level, Day 4 (pre-tx) / blood hematocrit (Hct), Day 4 (pre-tx): mean±SEM; for effect of treatment on arterial blood pH (acidosis): day 4, antagonist given with saline+insulin; for effect of treatment on arterial blood pH (acidosis) / effect of treatment on blood K+ levels / effect of treatment on blood lactate levels / effect of treatment on hematocrit: result in words; for effect of treatment on blood K+ levels / effect of treatment on blood lactate levels / effect of treatment on hematocrit: day 4, compared to diabetic untreated rats; for arterial blood pCO2, Day 4 (1 hour of tx) / arterial blood pCO2, Day 4 (end of tx) / arterial blood pO2, Day 4 (1 hour of tx) / arterial blood pO2, Day 4 (end of tx) / blood K+ level, Day 4 (1 hour tx) / blood K+ level, Day 4 (end of tx) / blood Na+ level, Day 4 (1 hour of tx) / blood Na+ level, Day 4 (end of tx) / blood hematocrit (Hct), Day 4 (1 hour of tx) / blood hematocrit (Hct), Day 4 (end of tx) / arterial blood pH, Day 4 (1 hour of tx) / arterial blood pH, Day 4 (end of tx): saline+insulin, alone or after bolus BMS-182874 9 mg/kg or BQ123 1 mg/kg; for arterial blood pH, Day 4 (1 hour of tx) / arterial blood pH, Day 4 (end of tx): instrument floor 6.80
Description: Arterial blood pH, pO2, pCO2, Na^+, K^+, lactate, and hematocrit were monitored prior to, at one hour, and at the end of treatment. Blood samples were drawn from the arterial cannula using blood gas sampling syringes (Innovative Medical Technologies, Inc. Leawood, Kans.) and analyzed using a GEM Premier 3000 unit (Instrument Laboratory, Lexington, Mass.). Blood samples were withdrawn from the femoral artery for baseline reading prior to start of treatment, after the first hour of treatment, and then at the end of the treatment (fifth hour of experiment).
as §1, §2, §3, §4

rat model of DKA [4] = test: Brain blood perfusion (Laser Doppler Flowmetry) in diabetic ketoacidosis rats; conditions: day 4, FIG. 6, antagonist given with saline+insulin, result in words
Procedure: A burr hole was drilled into the rat skull approximately 2 millimeters (mm) to the left of midline, being careful not to disturb the brain tissue itself. Cerebrovascular perfusion was measured via a fiber optic probe (PF407) applied to the surface of the rat brain. The probe was connected to a Periflux PF2b 4000 Laser Doppler Flowmetry unit (Perimed, Stockholm, Sweden). The perfusion was determined by measuring the passage of red blood cells through the capillaries.
as §1, §2, §3, §4

Compound | effect on mean arterial pressure (rat model of DKA [1]) | effect on heart rate (rat model of DKA [1]) | blood glucose, Day 4 (pre-tx) (rat model of DKA [2]) | effect of treatment on blood glucose (rat model of DKA [2]) | blood glucose, Day 4 (end of tx) (rat model of DKA [2]) | blood glucose, Day 4 (1 hour of tx) (rat model of DKA [2]) | arterial blood pH, Day 4 (pre-tx) (rat model of DKA [3]) | arterial blood pCO2, Day 4 (pre-tx) (rat model of DKA [3]) | arterial blood pO2, Day 4 (pre-tx) (rat model of DKA [3]) | blood K+ level, Day 4 (pre-tx) (rat model of DKA [3]) | blood Na+ level, Day 4 (pre-tx) (rat model of DKA [3]) | blood hematocrit (Hct), Day 4 (pre-tx) (rat model of DKA [3]) | effect of treatment on arterial blood pH (acidosis) (rat model of DKA [3]) | effect of treatment on blood K+ levels (rat model of DKA [3]) | effect of treatment on blood lactate levels (rat model of DKA [3]) | effect of treatment on hematocrit (rat model of DKA [3]) | arterial blood pCO2, Day 4 (1 hour of tx) (rat model of DKA [3]) | arterial blood pCO2, Day 4 (end of tx) (rat model of DKA [3]) | arterial blood pO2, Day 4 (1 hour of tx) (rat model of DKA [3]) | arterial blood pO2, Day 4 (end of tx) (rat model of DKA [3]) | also measured
CC(C)C[C@@H]1NC(=O)[C@@H](C(C)C)NC(=O)[C@@H]2CCCN2C(=O)[C@@H](CC(=O)O)NC(=O)[C@@H](Cc2c[nH]c3ccccc23)NC1=O [BQ123, Cyclo(D-Trp-D-Asp-Pro-D-Val-Leu)] (cyclo(L[dW][dD]P[dV])) | stabilized the arterial pressure | did not produce any decrease in heart rate compared to baseline | 484 ± 17 mg/dL | did not significantly affect blood glucose | 312 ± 55 mg/dL | 462 ± 55 mg/dL | 6.82 ± 0.02 | 25.00 ± 3.7 mmHg | 130.2 ± 14.04 mmHg | 3.4 ± 0.45 mmol/L | 140.00 ± 2.87 mmol/L | 42.6 ± 4.81% | produced a significant improvement in arterial blood pH | significantly reduced the change in blood K^+ levels | significantly reduced the change in blood lactate levels | significantly reduced the hematocrit | 23.6 ± 2.17 mmHg | 23.2 ± 1.95 mmHg | 128.4 ± 11.006 mmHg | 141.2 ± 4.6 mmHg | blood K+ level, Day 4 (1 hour tx) (rat model of DKA [3]): 2.04 ± 0.29 mmol/L; blood K+ level, Day 4 (end of tx) (rat model of DKA [3]): 2.38 ± 0.34 mmol/L; blood Na+ level, Day 4 (1 hour of tx) (rat model of DKA [3]): 147 ± 1.3 mmol/L; blood Na+ level, Day 4 (end of tx) (rat model of DKA [3]): 150.04 ± 2.43 mmol/L; blood hematocrit (Hct), Day 4 (1 hour of tx) (rat model of DKA [3]): 31.4 ± 2.97 %; blood hematocrit (Hct), Day 4 (end of tx) (rat model of DKA [3]): 31.8 ± 2.21 %; arterial blood pH, Day 4 (1 hour of tx) (rat model of DKA [3]): 6.81 ± 0.01; arterial blood pH, Day 4 (end of tx) (rat model of DKA [3]): 6.91 ± 0.01; effect on cerebral blood perfusion (rat model of DKA [4]): significantly blocked; also recorded: prevented an insulin induced increase in cerebral blood perfusion
Insulin: Humulin® R (Regular human insulin, rDNA origin), infused with saline | produced much less fall in arterial pressure compared to untreated rats | did not produce any decrease in heart rate compared to baseline | 530 ± 20 mg/dL | produced a significant decrease in blood glucose | 200 ± 20 mg/dL | 444 ± 26 mg/dL | 6.81 ± 0.01 | 30.40 ± 2.46 mmHg | 145.00 ± 10.84 mmHg | 3.82 ± 0.29 mmol/L | 135.00 ± 2.17 mmol/L | 49.80 ± 2.27% | did not produce any significant improvement in acidosis | significantly reduced the change in blood K^+ levels | significantly reduced the change in blood lactate levels | significantly reduced the hematocrit | 29.00 ± 2.30 mmHg | 27.60 ± 2.21 mmHg | 160.20 ± 11.36 mmHg | 155.60 ± 11.43 mmHg | effect on pulse pressure (rat model of DKA [1]; day 4, FIG. 4, antagonist given with saline+insulin): produced much less fall in pulse pressure compared to untreated rats; blood K+ level, Day 4 (1 hour tx) (rat model of DKA [3]): 2.92 ± 0.16 mmol/L; blood K+ level, Day 4 (end of tx) (rat model of DKA [3]): 2.48 ± 0.24 mmol/L; blood Na+ level, Day 4 (1 hour of tx) (rat model of DKA [3]): 141.60 ± 1.21 mmol/L; blood Na+ level, Day 4 (end of tx) (rat model of DKA [3]): 148.60 ± 0.51 mmol/L; blood hematocrit (Hct), Day 4 (1 hour of tx) (rat model of DKA [3]): 38.80 ± 1.80%; blood hematocrit (Hct), Day 4 (end of tx) (rat model of DKA [3]): 30.20 ± 3.12 %; arterial blood pH, Day 4 (1 hour of tx) (rat model of DKA [3]): 6.80 ± 0.01; arterial blood pH, Day 4 (end of tx) (rat model of DKA [3]): 6.81 ± 0.04; effect on cerebral blood perfusion (rat model of DKA [4]): produced a marked (#P<0.05) increase in cerebral blood perfusion
